Here are results for one compound from patent publication US7384657B2, “Composition of natural herb extract for treating cardiovascular disease and its method of preparation thereof” (priority 2004, dated 2008).

One may read the LD50 as the dose at which mortality reaches 50%.

For data set [1] the following is noted: cited from earlier work.
For data set [2] the following is noted: 100 mg/kg i.v. The protocol: Study of pharmacokinetics of Matrine is carried out. […] Rats are given intravenous injection of oxymatrine 100 mg/kg.
Data set [3] in a line: pharmacokinetics of oxymatrine and matrine in mice.
The nature of a further data set: solubility. On the procedure:
Matrine is also called matricaria. Its molecular formula is C15H24N2O and its molecular weight is 248.36. It has four isomers: α, β, γ, and δ isomers. α-matrine is the one commonly seen. It is a needle or rhombohedral crystal, having a melting point 76° C. and [α]D+39.1° (H2O).
Oxymatrine has a molecular formula C15H24N2O2 and a molecular weight 264.36. It is a colorless columnar crystal (Me2CO), melting point 162° C. (hydrate), 207° C. (anhydrate), [α]D+47.7° (C2H5OH). […] It can change to matrine through reaction with SO2.

Where [4] appears, read: within 24 hours of intramuscular oxymatrine 100 mg/kg.

The structures appear in SMILES notation. Where two headings read alike, the source gives them in different places.

In the case of `O=C1CCC[C@@H]2[C@H]3CCC[N+]4([O-])CCC[C@@H](CN12)[C@@H]34` (stereo partly shown) [Oxymatrine], in data set [1] (intramuscular injection), the LD50 was 256.74 ± 573.6 mg/kg. Further, the median lethal dose (LD50) in data set [1] (intravenous injection) is 144.2 ± 22.8 mg/kg. In data set [2], the distribution and elimination entry was “distribution is wide and the elimination fast”. Moreover, in data set [3] (stomach perfusion), the “transformation in the gastrointestinal tract” value is reported as “gradually transforms into matrine in the gastrointestinal tract”. For the same compound, in data set [3] (setting [4]), the excretion of oxymatrine was 5.1% and the “matrine found in the emiction of urine” value stood at 20.6%. Besides, in “solubility”, the solubility result was “soluble in water, chloroform and ethanol, but nearly insoluble in ether, methyl ether and petroleum ether”.
